The source of these data is patent US12290533B2, “Extracellular vesicles and methods of using” (NUtech Ventures, priority 2018, dated 2025).

The subject of data set [1] is human colon carcinoma Caco-2 cells. The experiment in a line: Uptake of FM 4-64-labeled bovine milk exosomes into Caco-2 cells. The conditions noted are these: for effect on exosome transport: milk exosomes treated with protease. (Caco-2 cells form a polarised layer with tight junctions and transporters.)
Protocol: Exosomes were isolated from bovine milk by differential centrifugation and authenticated as recommended by International Society for Extracellular Vesicles. […] Controls were incubated with solvent. Exosomes were labeled with FM4-64, and unlabeled fluorophore was removed. […] Transport kinetics were modelled using the Michaelis-Menten equation. One-way ANOVA and Bonferroni's multiple comparison were used for statistical analyses.
Caco-2 cells and IEC-6 cells were seeded at a density of 20,000 and 7000 cells/well, respectively, in 96-well plates, and allowed to adhere for 48 h, when cells were 75% confluent. The exosomes were labeled with the fluorophore, FM 4-64 (Molecular Probes). One microliter of a stock solution of FM 4-64 (5.9 mmol/L) was added to 1 mL of exosome suspension and incubated for 15 min at 37° C., and excess FM 4-64 was removed by ultracentrifugation at 120,000 3 g at 4° C. for 90 min. Transport studies were conducted using FM4-64-labeled exosomes using 3-110 mg of exosomal protein/well (Caco-2 cells) or 27-652 mg of exosomal protein/well (IEC-6 cells) and incubating cells for various periods of time to assess saturation kinetics; blanks were created using solvent. Assays were calibrated by quantifying the fluorescence of a known mass of exosomes labeled with FM 4-64. Exosome uptake was analyzed by measuring the cell fluorescence at 515 (excitation) and 640 nm (emission) using a Biotek FLx800 plate reader (BioTek Instru-ments). Fluorescence readings were corrected for cell autofluorescence by subtracting signals measured in cells incubated with exosome-depleted media. Transport kinetics was modeled using the Michaelis-Menten equation and nonlinear regression; modeling was conducted using GraphPad Prism 6.0 (GraphPad Software). […] Subsequent transport studies were conducted using incubation times of 8 hours for Caco-2 cells (FIG. 34B).
Transport kinetics was modeled using the Michaelis-Menten equation.
The conditions of data set [2]: mouse, in vivo.
Protocol: Exosomes were isolated from bovine milk using ultracentrifugation. Exosome membranes were labeled using the fluorophore, DiR, as described elsewhere herein. […] Identity, integrity, fine dispersion, and count of exosomes were assessed using transmission electron microscopy, western blots, and nanoparticle tracker (not shown). Exosomes were administered orally by gavage (1×10^12 exosomes/g) in BALB/c mice. Absorption and distribution of exosomes and their cargos was monitored at timed intervals for up to 24 h using an iBox® Small Animal Imaging system and LiCor Odyssey CLx. At timed intervals, mice were euthanized and various tissues were excised and collected for densitometry analysis using VisionWorks®LS and Image Studio software.
Studies were conducted in female Balb/c mice (Jackson Laboratory, stock number 000651), ages 8 to 20 weeks, unless noted otherwise.
Exosomes were labeled with the lipophilic fluorophore 1,1-dioctadecyl-3,3,3,3-tetrametylindotricarbocyanine iodide (DiR) as described elsewhere (see, e.g., Wiklander et al., J. Extracell. Vesicles 4:26316 (2015)). […] Free dyes and extra-exosomal synthetic microRNAs were removed by two PBS washes (120,000×g for 60 minutes), and 1×10^12 exosomes were administered per g body weight in a volume of less than 150 μl. […] All exosome preparations were utilized within 2 hours.
The subject of data set [3] is rat small intestinal IEC-6 cells. The experiment in a line: Uptake of FM 4-64-labeled bovine milk exosomes into IEC-6 cells. The conditions noted are these: exosomes treated with 0.105 mMol/L trypsin for 30 mins. Type of data set: cell-based.
In data set [4] the test system is human umbilical vein endothelial cells (HUVEC). As to the kind of experiment: Uptake of fluorophore-labeled cow's milk exosomes into HUVECs. Type of data set: cell-based.
Data set [5] can be described thus: Bovine milk exosomes and miRNAs in embryos and placentas of pregnant mice at E16.5. Type of data set: in vivo. From the text: The bioavailability of bovine milk exosomes and miRNAs in fetal circulation of pregnant mice was examined. DiR-labelled bovine milk exosomes (or unlabeled control bovine milk exosomes) were adminstered to pregnant mice at embryonic day 16.5 (E16.5) to embryos and placentas. […] Three independent experiments per each treatment and control.

The nature of data set [6]: Bioavailability and distribution of fluorophore-labeled RNA and microRNA cargos in bovine milk exosomes. The class given is in vivo, Balb/c mice. The conditions noted are these: for tissue distribution of fluorophore-labeled microRNA transfected into milk exosomes: oral gavage, 6 hours. On the procedure:
Exosomes were isolated from bovine milk using ultracentrifugation.
Labeling of exosomes and RNAs with synthetic fluorophores. […] All exosome preparations were utilized within 2 hours.

Entries after “also recorded” stand apart in the source; their conditions may differ.

Turning to trypsin, in data set [1] (exosomes treated with protease, control 88±1, cell type not named at the place), the “transport rates (Vmax)” value is listed as 40±0.6 arbitrary units. In addition, in data set [1], the “effect on exosome transport” value is listed as “significant decrease in exosome transport into CaCo-2 cells”. The “tissue accumulation of exosomes depleted of surface proteins” value in data set [2] was “reduced accumulation of exosomes in the liver and lungs after intravenous injection”. In addition, in data set [3], the exosome uptake stood at 82%+8%.
Consider `O=C[C@H](O)[C@@H](O)[C@@H](O)[C@H](O)CO` [D-galactose], for which, in data set [4] (150 mmol/L, pretreated 30 min), the “effect of carbohydrate competitor on exosome uptake” value is “caused a significant decrease in exosome uptake”.
For the compound “miR-30d: microRNA loaded into bovine milk exosomes; uguaaacauccccgacuggaagcu, SEQ ID NO: 13 (UGUAAACAUCCCCGACUGGAAGCU; listed as RNA, further chemistry not given here)”, the “presence in embryo and placenta” value in data set [5] was “present in both embryo and placenta”.
For `C=C1[C@@H](C)[C@H]2[C@H](Cc3ccccc3)NC(=O)[C@]23[C@H](OC(C)=O)/C=C/[C@@](C)(O)C(=O)[C@@H](C)C/C=C/[C@H]3[C@@H]1O` [cytochalasin D], the “decrease of transport rates compared with controls” value in data set [4] (exosomes treated with proteinase K, or transport in presence of D-galactose, excess unlabeled exosomes or cytochalasin D) is reported as 50%.
As for “MiR-34a: synthetic IRDye-labeled microRNA transfected into bovine milk exosomes; uggcagugucuuagcugguugu, SEQ ID NO: 8 (UGGCAGUGUCUUAGCUGGUUGU; IRDye fluorophore label, position not given here, synthetic)”, the “tissue distribution of fluorophore-labeled microRNA transfected into milk exosomes” value in data set [6] is “brain”.
On to “miR-375: synthetic 5ATT0633N-labeled microRNA, with or without quencher 3IAbRQSp, transfected into milk exosomes; uuuuguucguucggcucgcguga, SEQ ID NO: 11 (UUUUGUUCGUUCGGCUCGCGUGA; listed as RNA, further chemistry not given here)”, for which, in data set [6] (administered orally, signal indicates degradation), the “signal of microRNA conjugated to fluorophore and quencher” value is “only a minimal signal was detected in heart and spleen”. Further, the “tissue distribution of fluorophore-labeled microRNA transfected into milk exosomes” value in data set [6] was “the signal localized primarily to the intestines, with minor signal being detectable in kidneys, brain and liver; also recorded: accumulated in brain, liver, kidneys and intestinal mucosa in mice”.
Regarding “Glu-C: serine protease cleaving at glutamic acid and aspartic acid residues”, in data set [1], the “effect on exosome transport” value was “significant decrease in exosome transport into CaCo-2 cells”.
In the case of “miR-320a: synthetic IRDye-labeled microRNA transfected into bovine milk exosomes; aaaagcuggguugagagggcga, SEQ ID NO: 10 (AAAAGCUGGGUUGAGAGGGCGA; IRDye fluorophore label, position not given here, synthetic)”, the “tissue distribution of IRDye-labeled microRNA transfected into milk exosomes” value in data set [6] (3 hours after intravenous injection) is “accumulated primarily in liver with small amounts being detectable in kidneys, lungs and spleen 3 hours after intravenous injection”. Moreover, in data set [6] (hepatic densitometry 3 hours after intravenous injection vs 6 hours after oral gavage), the apparent bioavailability was determined as 25.4±8.7%. The “tissue distribution of fluorophore-labeled microRNA transfected into milk exosomes” value in data set [6] is “accumulated primarily in liver, spleen and kidneys 6 hours after oral gavage”.
